This is an account of results in US20070259888A1, “Novel Compounds” (ASTRAZENECA AB, priority 2006, published 2007).

Experiment [1] has as its target T1, human M2 receptor (human Muscarinic receptor subtype 2) (Homo sapiens, UniProt P08172).
T1 construct: purchased Perkin-Elmer RBHM2M; host or cells: Chinese hamster ovary cells (CHO), membranes
T1 sequence (P08172 1-466): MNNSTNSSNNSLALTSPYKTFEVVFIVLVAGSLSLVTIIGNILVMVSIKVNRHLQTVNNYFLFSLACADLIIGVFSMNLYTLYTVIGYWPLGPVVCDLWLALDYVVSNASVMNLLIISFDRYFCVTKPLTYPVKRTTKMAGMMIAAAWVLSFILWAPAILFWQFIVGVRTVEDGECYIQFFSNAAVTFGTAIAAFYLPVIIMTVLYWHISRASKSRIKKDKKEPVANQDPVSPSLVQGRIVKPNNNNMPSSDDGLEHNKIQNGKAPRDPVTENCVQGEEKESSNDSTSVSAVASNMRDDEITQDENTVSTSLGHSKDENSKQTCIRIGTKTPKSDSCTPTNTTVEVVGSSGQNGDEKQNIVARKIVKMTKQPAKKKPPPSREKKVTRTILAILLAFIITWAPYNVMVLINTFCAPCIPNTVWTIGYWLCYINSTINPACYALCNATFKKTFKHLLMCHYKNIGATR
Kind of experiment: hM2 receptor GTPγS binding. Particulars: CHO membranes expressing hM2, GTPγ35S binding; for EC50: read-out: hM2_EC50. Format: biochemical. The method, then:
hM2 Receptor GTPyS Binding
Membranes produced from Chinese hamster ovary cells (CHO) expressing the cloned human M2 receptor (human Muscarinic receptor subtype 2, gene bank access NM_000739), were obtained from Perkin-Elmer (RBHM2M). The membranes were thawed at 37° C., passed 3 times through a 23-gauge blunt-end needle, diluted in the GTPγS binding buffer (50 mM Hepes, 20 mM NaOH, 100 mM NaCl, 1 mM EDTA, 5 mM MgCl2, pH 7.4, 100 μM DTT). The EC50, IC50 and Emax of the compounds of the invention were evaluated from 10-point dose-response curves (three fold concentration range) done in 60 μl in 384-well non-specific binding surface plate (Corning). Ten microliters from the dose-response curves plate (5× concentration) were transferred to another 384 well plate containing the following: 10 μg of hM2 membranes, 500 μg of Flashblue beads (Perkin-Elmer) and GDP in a 25 μl volume. An additional 15 μl containing 3.3× (55000 dpm) of GTPγ^35S (0.4 nM final) were added to the wells resulting in a total well volume of 50 μl. Basal and maximal stimulated GTPγ^35S binding was determined in absence and presence of 30 μM of acetylcholine agonist. The membranes/beads mix were pre-incubated for 15 minutes at room temperature with 25 μM GDP prior to distribution in plates (12.5 μM final). The reversal of acetylcholine-induced stimulation (2 μM final) of GTPγ^35S binding was used to assay the antagonist properties (IC50) of the compounds. The plates were incubated for 60 minutes at room temperature with shaking, then centrifuged at 2000 rpm for 5 minutes. The radioactivity (cpm) was counted in a Trilux (Perkin-Elmer).
Values of EC50, IC50 and Emax were obtained using sigmoidal fits of a non-linear curve-fitting program (XLfit version 5.0.6 from ID Business Solutions Limited, Guildford, UK) of percent-stimulated GTPγ^35S binding vs. log (molar ligand).
All EC50 and IC50 values are reported as geometric means of ‘n’ independent experiments. […] The IC50 was the concentration of the compound of the invention at which 50% inhibition of acetylcholine GTPγ^35S binding stimulation has been observed.

In experiment [2] the target is T2, hM1 (human Muscarinic receptor subtype 1) (Homo sapiens, UniProt P11229).
T2 construct: expressed in transfected cells; host or cells: CHO cells (chinese hamster ovary cells, ATCC)
T2 sequence (P11229 1-460): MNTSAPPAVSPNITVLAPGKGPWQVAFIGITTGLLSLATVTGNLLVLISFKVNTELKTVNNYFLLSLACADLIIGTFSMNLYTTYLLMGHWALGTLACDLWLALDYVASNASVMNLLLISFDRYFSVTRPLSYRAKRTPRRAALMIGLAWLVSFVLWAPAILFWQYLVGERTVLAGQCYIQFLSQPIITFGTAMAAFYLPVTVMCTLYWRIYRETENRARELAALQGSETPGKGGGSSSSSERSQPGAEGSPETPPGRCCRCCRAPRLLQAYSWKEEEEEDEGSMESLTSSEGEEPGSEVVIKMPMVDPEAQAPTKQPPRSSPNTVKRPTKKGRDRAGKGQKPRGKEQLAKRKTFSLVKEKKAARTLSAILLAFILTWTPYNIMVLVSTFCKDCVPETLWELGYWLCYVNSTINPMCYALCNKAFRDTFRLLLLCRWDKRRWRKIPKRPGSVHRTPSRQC
The experiment is described as follows: Human M1 calcium mobilization FLIPR assay. Format: cell-based. Conditions: CHO cells expressing hM1, FLIPR; for EC50: read-out: hM1EC50; for Emax: read-out: hM1Emax. How it is done: The compound activity in the present invention (EC50 or IC50) was measured using a 384 plate-based imaging assay that monitors drug induced intracellular Ca^2+ release in whole cells. Activation of hM1 (human Muscarinic receptor subtype 1, gene bank access NM_000738), rM1 (rat Muscarinic receptor subtype 1, gene bank access NM_080773), hM3 (human Muscarinic receptor subtype 3, gene bank access NM_000740NM_000740) and hM5 (human Muscarinic receptor subtype 5, gene bank access NM_0121258) receptors expressed in CHO cells (chinese hamster ovary cells, ATCC) was quantified in a Molecular Devices FLIPR II™ instrument as an increase in fluorescent signal. Inhibition of hM3 and hM5 by compounds was determined by the decrease in fluorescent signal in response to 2 nM acetylcholine activation.
CHO cells were plated in 384-black polylysine coated plate (Costar) at 8000 cells/well/50 μl for 24 hours or 4000 cells/well for 48 hours in a humidified incubator (5% CO2 and 37° C.) in DMEM/F12 medium without selection agent. Prior to the experiment the cell culture medium was removed from the plates by inversion. A loading solution of 30 μl of Hank's balanced salt solution, 10 mM Hepes and 2.5 mM Probenicid at Ph 7.4 (Cat no. 311-520-VL, Wisent) with 2 μM calcium indicator dye (FLUO-3AM, Molecular Probes F14202) was added to each well. Plates were incubated at 37° C. for 60 minutes prior to start the experiment. The incubation was terminated by washing the cells four times in assay buffer, leaving a residual 25 μl buffer per well. Cell plates were then transferred to the FLIPR, ready for compound additions.
The day of experiment, acetylcholine and compounds were diluted in three-fold concentration range (10 points serial dilution) for addition by FLIPR instrument. For all calcium assays, a baseline reading was taken for 30 seconds followed by the addition of 12.5 μl (25 μl for hM1 and rM1) of compounds, resulting in a total well volume of 37.5 μl (50 μl for hM1 and rM1). Data were collected every 1.6 seconds for 300 seconds. For hM3 and hM5 an additional 12.5 μl of acetylcholine (2 nM final) was added at 300 seconds. After this addition of acetylcholine (producing a final volume of 50 μl), the FLIPR continued to collect data every 2 seconds for 240 seconds. The fluorescence emission was read using filter 1 (emission 520-545 nm) by the FLIPR on board CCD camera.
Calcium mobilization output data were calculated as the maximal relative fluorescence unit (RFU) minus the minimal value for both compound and agonist reading frame (except for hM1 and rM1 using only the maximal RFU). Data were analyzed using sigmoidal fits of a non-linear curve-fitting program (XLfit version 5.0.6 from ID Business Solutions Limited, Guildford, UK). All EC50 and IC50 values are reported as geometric means of ‘n’ independent experiments.
(In general: Calcium assays in cells follow changes in intracellular calcium, usually with a dye or a luminescent sensor.)

Some results are limits rather than exact numbers.

Consider `O=C(N[C@H]1CCCC[C@@H]1CN1CCCCCC1)c1ccc(-n2cccn2)cc1` [N-[(1S,2R)-2-(azepan-1-ylmethyl)cyclohexyl]-4-(1H-pyrazol-1-yl)benzamide], for which, in experiment [1], the Emax is greater than 12% and the EC50 was greater than 30000 nM. In experiment [2], the EC50 was 130 nM and the Emax was 70%.
`CCO[C@@H]1CCCN(C[C@H]2CCCC[C@@H]2NC(=O)c2cnccn2)C1`: in experiment [2], the EC50 was 1500 nM and the Emax was determined as 76%.
As for `CCOC[C@@H]1CCCN(C[C@H]2CCCC[C@@H]2NC(=O)C2CCc3ccccc3O2)C1` (stereo partly drawn) [N-((1S,2R)-2-{[(3R)-3-(ethoxymethyl)piperidin-1-yl]methyl}cyclohexyl)chromane-2-carboxamide], in experiment [1], the Emax was 54% and the EC50 is 570 nM. For the same compound, in experiment [2], the EC50 came to 55 nM and the Emax came out at 98%.
For `CCOC[C@@H]1CCCN(C[C@H]2CCCC[C@@H]2NC(=O)c2ccc(-n3cnnn3)cc2)C1` [N-((1S,2R)-2-{[(3R)-3-(ethoxymethyl)piperidin-1-yl]methyl}cyclohexyl)-4-(1H-tetrazol-1-yl)benzamide], in experiment [1], the Emax worked out at 27% and the EC50 is 1210 nM. In experiment [2], the EC50 came to 9 nM and the Emax stood at 95%.
For `CCOC[C@@H]1CCCN(C[C@H]2CCCC[C@@H]2NC(=O)c2ccc3c(c2)OCCN3C)C1` [N-((1S,2R)-2-{[(3R)-3-(ethoxymethyl)piperidin-1-yl]methyl}cyclohexyl)-4-methyl-3,4-dihydro-2H-1,4-benzoxazine-7-carboxamide], in that order: 0%, greater than 30000 nM, 152 nM and 85%.
For `CCCCC1CCCN(C[C@@H]2CCCC[C@H]2NC(=O)CCc2ccc(Cl)cc2)C1` (mixture of isomers), in that order: 38%, 1230 nM, 174 nM and 86%.
`CCOC[C@@H]1CCCN(C[C@H]2CCCC[C@@H]2NC(=O)C2CCCCC2)C1` [N-((1S,2R)-2-{[(3R)-3-(ethoxymethyl)piperidin-1-yl]methyl}cyclohexyl)cyclohexanecarboxamide]: in experiment [1], the Emax amounted to 30% and the EC50 was 1080 nM. Besides, in experiment [2], the EC50 came to 157 nM and the Emax turned out to be 75%.
For `CCOCC1CCCN(C[C@@H]2CCCC[C@H]2NC(=O)c2ccc(-c3cnco3)cc2)C1` (mixture of isomers) the same measures were 25%, 5480 nM, 17 nM and 97%.
Consider `O=C(N[C@H]1CCCC[C@@H]1CN1CCCC(c2ccccc2)C1)c1ccc(-n2cccn2)nc1` (some centres unmarked), for which, in experiment [2], the EC50 is 393 nM and the Emax was found to be 105%.
For `CCOC[C@@H]1CCCN(C[C@H]2CCCC[C@@H]2NC(=O)CNC(C)=O)C1` the same measures were 322 nM and 91%.
As for `CCOC[C@@H]1CCCN(C[C@H]2CCCC[C@@H]2NC(=O)c2ccc(CN(C(C)=O)C(C)=O)cc2)C1` [4-[(diacetylamino)methyl]-N-((1S,2R)-2-{[(3R)-3-(ethoxymethyl)piperidin-1-yl]methyl}cyclohexyl)benzamide], in experiment [1], the Emax came out at 18% and the EC50 turned out to be 3300 nM. In experiment [2], the EC50 was determined as 103 nM and the Emax came out at 91%.
For `C=CCOC[C@@H]1CCCN(C[C@H]2CCCC[C@@H]2NC(=O)c2ccc(-n3ccnc3)nc2)C1` [N-[(1S,2R)-2-({(3R)-3-[(allyloxy)methyl]piperidin-1-yl}methyl)cyclohexyl]-6-(1H-imidazol-1-yl)nicotinamide] the same measures were 22%, 216 nM, 5 nM and 95%.
For `O=C(N[C@H]1CCCC[C@@H]1CN1CCCCC1)c1ccc(-n2cccn2)nc1` [N-[(1S,2R)-2-(piperidin-1-ylmethyl)cyclohexyl]-6-(1H-pyrazol-1-yl)nicotinamide], in that order: 0%, greater than 30000 nM, 26 nM and 82%.
For `C=CCO[C@@H]1CCCN(C[C@H]2CCCC[C@@H]2NC(=O)c2ccc(-n3cccn3)nc2)C1` [N-((1S,2R)-2-{[(3R)-3-(allyloxy)piperidin-1-yl]methyl}cyclohexyl)-6-(1H-pyrazol-1-yl)nicotinamide] the same measures were 50%, 4450 nM, 33 nM and 97%.
Take `CCCCC1CCCN(C[C@@H]2CCCC[C@H]2NC(=O)c2ccc(CN(CC)CC)cc2)C1` (mixture of isomers): in experiment [1], the Emax amounted to 2% and the EC50 is 165 nM. In experiment [2], the EC50 turned out to be 103 nM and the Emax stood at 94%.
In the case of `CCOC[C@@H]1CCCN(C[C@H]2CCCC[C@@H]2NC(=O)c2cnc(C)cc2C)C1` [N-((1S,2R)-2-{[(3R)-3-(ethoxymethyl)piperidin-1-yl]methyl}cyclohexyl)-4,6-dimethylnicotinamide], in experiment [2], the EC50 was found to be 504 nM and the Emax amounted to 54%.
